According to patent publication US20150328329A1, “LIGANDS THAT TARGET HCV-E2 BINDING SITES ON CD81 AND THERAPEUTIC METHODS USING THEM” (American University of Cairo, priority 2012, published 2015):

What follows are compounds tested against T1, native CD81 on Raji cells (Homo sapiens, UniProt P60033) (assay: Competition assay: inhibition of FITC-labeled JS-81 anti-CD81 antibody binding to native CD81 on live Raji cells (flow cytometry)). Conditions: 50 μM ligand.
T1 construct: endogenous in cells; host or cells: Raji (human B cell line)
T1 sequence (P60033 1-236): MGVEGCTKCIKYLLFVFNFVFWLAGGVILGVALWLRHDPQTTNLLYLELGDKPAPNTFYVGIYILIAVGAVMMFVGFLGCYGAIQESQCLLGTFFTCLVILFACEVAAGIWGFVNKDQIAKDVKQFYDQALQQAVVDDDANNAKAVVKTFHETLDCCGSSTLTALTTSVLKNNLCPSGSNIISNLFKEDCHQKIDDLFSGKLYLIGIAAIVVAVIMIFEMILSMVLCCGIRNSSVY
Format: cell-based
Source text: A subset of these ligands and some of those listed in the patent have been tested to identify those ligands that bind to the correct region of the CD81 protein and for binding to native CD81 on living cells (a Raji cell line). This assay tests three concentrations of the ligand to determine if the ligand is capable of inhibiting the binding of an antibody called JS-81. This antibody is known to bind to the region of the CD81 protein we have targeted. If the ligand decreases JS-81 binding as you increase the concentration of the ligand, it is 1) binding to native CD81 on the Raji cells and 2) it is binding to the correct region of the protein.
For antibody neutralization assay Raji cells were used, a human B cell line that expressed high amounts of CD81 on the surface (data not shown). Cells were grown in RPMI medium (10% FCS, 1% penicillin/streptomycin, 1% L-glutamine, 1% non-essential amino acids, 1% sodium pyruvate, pH 7.4, at 37° C. with 5% CO2). 2×10^5 cells were incubated with or without different concentrations (50 μM, 100 μM, 400 μM and 1 mM) of indicated inhibitor for 20 min at room temperature, subsequently 1 ul (16 ng/μl) of FITC-labeled anti CD81 antibody (BD Pharmingen, 551108) was added to the cells and incubated for 20 min (antibody titration was performed to obtain a working dilution range, data not shown). Cells were washed and analyzed by flow cytometry using fluorescence-activated cell sorting (FACS) (BD FACSCalibur, software: Cell Quest Pro). Mean Fluorescence Intensity MFI was calculated using Flowjo software (TreesStar, www.flowjo.com).
For `CCC(C)(C)c1ccc(Oc2cccc(C(=O)O)c2)cc1` [Ligand 7962], the “Inhibition of JS-81 Binding (%)” value was 0%.
With `O=C(O)c1ccc(N2CCCCC2)cc1O` [Ligand 23895] the “Inhibition of JS-81 Binding (%)” value was 0%.
In the case of `Cc1ccc(-c2cc(C(=O)O)c3ccccc3n2)c(C)c1` [Ligand 25678], the “Inhibition of JS-81 Binding (%)” value is reported as 0%.
`O=C(O)/C(=C/c1ccccc1)c1ccccc1` [Ligand 40614] was tested, and the “Inhibition of JS-81 Binding (%)” value was 0%.
`CNC1(C(N)=O)CCNCC1` [Ligand 75846] was tested, and the “Inhibition of JS-81 Binding (%)” value was 0%.
With `O=C(O)Cn1ccc2ccccc21` [Ligand 75866] the “Inhibition of JS-81 Binding (%)” value was 0%.
For `c1cncc(C2CCCCN2)c1` (stereo not shown) [Ligand 87504], the “Inhibition of JS-81 Binding (%)” value was 0%.
For `Cc1cc(C)c(N)c(C(=O)O)c1` [Ligand 90444], the “Inhibition of JS-81 Binding (%)” value was 0%.
In the case of `O=C(O)c1cc(O)ccc1/N=N/c1ccccc1` [Ligand 106863], the “Inhibition of JS-81 Binding (%)” value is reported as 0%.
`NC(=O)NC(=O)c1nccnc1C(=O)O` [Ligand 117922] was tested, and the “Inhibition of JS-81 Binding (%)” value was 0%.
With `NS(=O)(=O)c1ccc(/N=N/c2c(O)c(C(=O)O)cc3ccccc23)cc1` [Ligand 134137] the “Inhibition of JS-81 Binding (%)” value was 0%.
`O=C(O)/C=C\C(=O)Nc1cccc2cccnc12` [Ligand 144958] was tested, and the “Inhibition of JS-81 Binding (%)” value was 0%.
`NC(=O)c1ccc2c(c1)S(=O)(=O)c1ccccc1C2=O` [Ligand 689002, 9-Oxo-9H-thioxanthene-3-carboxamide 10,10-dioxide] was tested, and the inhibition at 50 µM was 0%.

Same assay, conditions: 100 μM ligand
`CCC(C)(C)c1ccc(Oc2cccc(C(=O)O)c2)cc1` [Ligand 7962] was tested, and the “Inhibition of JS-81 Binding (%)” value was 0%.
For `O=C(O)c1ccc(N2CCCCC2)cc1O` [Ligand 23895], the “Inhibition of JS-81 Binding (%)” value was 0%.
`Cc1ccc(-c2cc(C(=O)O)c3ccccc3n2)c(C)c1` [Ligand 25678] was tested, and the “Inhibition of JS-81 Binding (%)” value was 4%.
With `O=C(O)/C(=C/c1ccccc1)c1ccccc1` [Ligand 40614] the “Inhibition of JS-81 Binding (%)” value was 8%.
`CNC1(C(N)=O)CCNCC1` [Ligand 75846] was tested, and the “Inhibition of JS-81 Binding (%)” value was 0%.
With `O=C(O)Cn1ccc2ccccc21` [Ligand 75866] the “Inhibition of JS-81 Binding (%)” value was 1%.
With `c1cncc(C2CCCCN2)c1` (stereo not shown) [Ligand 87504] the “Inhibition of JS-81 Binding (%)” value was 6%.
`Cc1cc(C)c(N)c(C(=O)O)c1` [Ligand 90444] was tested, and the “Inhibition of JS-81 Binding (%)” value was 0%.
`O=C(O)c1cc(O)ccc1/N=N/c1ccccc1` [Ligand 106863] was tested, and the “Inhibition of JS-81 Binding (%)” value was 0%.
In the case of `NC(=O)NC(=O)c1nccnc1C(=O)O` [Ligand 117922], the “Inhibition of JS-81 Binding (%)” value is reported as 12%.
With `NS(=O)(=O)c1ccc(/N=N/c2c(O)c(C(=O)O)cc3ccccc23)cc1` [Ligand 134137] the “Inhibition of JS-81 Binding (%)” value was 6%.
With `O=C(O)/C=C\C(=O)Nc1cccc2cccnc12` [Ligand 144958] the “Inhibition of JS-81 Binding (%)” value was 54%.
For `NC(=O)c1ccc2c(c1)S(=O)(=O)c1ccccc1C2=O` [Ligand 689002, 9-Oxo-9H-thioxanthene-3-carboxamide 10,10-dioxide], the inhibition at 100 µM was 0%.

Same assay, conditions: 400 μM ligand
In the case of `CCC(C)(C)c1ccc(Oc2cccc(C(=O)O)c2)cc1` [Ligand 7962], the “Inhibition of JS-81 Binding (%)” value is reported as 19%.
For `O=C(O)c1ccc(N2CCCCC2)cc1O` [Ligand 23895], the “Inhibition of JS-81 Binding (%)” value was 17%.
For `Cc1ccc(-c2cc(C(=O)O)c3ccccc3n2)c(C)c1` [Ligand 25678], the “Inhibition of JS-81 Binding (%)” value was 19%.
In the case of `O=C(O)/C(=C/c1ccccc1)c1ccccc1` [Ligand 40614], the “Inhibition of JS-81 Binding (%)” value is reported as 26%.
In the case of `CNC1(C(N)=O)CCNCC1` [Ligand 75846], the “Inhibition of JS-81 Binding (%)” value is reported as 52%.
In the case of `O=C(O)Cn1ccc2ccccc21` [Ligand 75866], the “Inhibition of JS-81 Binding (%)” value is reported as 31%.
`c1cncc(C2CCCCN2)c1` (stereo not shown) [Ligand 87504] was tested, and the “Inhibition of JS-81 Binding (%)” value was 20%.
`Cc1cc(C)c(N)c(C(=O)O)c1` [Ligand 90444] was tested, and the “Inhibition of JS-81 Binding (%)” value was 24%.
For `O=C(O)c1cc(O)ccc1/N=N/c1ccccc1` [Ligand 106863], the “Inhibition of JS-81 Binding (%)” value was 19%.
For `NC(=O)NC(=O)c1nccnc1C(=O)O` [Ligand 117922], the “Inhibition of JS-81 Binding (%)” value was 26%.
With `NS(=O)(=O)c1ccc(/N=N/c2c(O)c(C(=O)O)cc3ccccc23)cc1` [Ligand 134137] the “Inhibition of JS-81 Binding (%)” value was 26%.
With `O=C(O)/C=C\C(=O)Nc1cccc2cccnc12` [Ligand 144958] the “Inhibition of JS-81 Binding (%)” value was 12%.
`NC(=O)c1ccc2c(c1)S(=O)(=O)c1ccccc1C2=O` [Ligand 689002, 9-Oxo-9H-thioxanthene-3-carboxamide 10,10-dioxide] was tested, and the inhibition at 400 µM was 14%.

The compounds below were run against T2, recombinant CD81-LEL (Homo sapiens, UniProt P60033) (assay: SPR (Biacore T100) binding of additional ligands to immobilized CD81-LEL (Example 6)). Conditions: Table E, ligand 200 uM in PBS-1% DMSO.
T2 construct: the large extracellular loop of CD81 (CD81-LEL); GST; His; Shoshana Levy Lab, Stanford (gift)
T2 sequence (P60033 113-201 limits assumed): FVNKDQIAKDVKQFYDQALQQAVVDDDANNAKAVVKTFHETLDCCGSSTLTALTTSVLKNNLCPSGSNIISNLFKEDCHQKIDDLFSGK
Description: SPR analysis was performed using a Biacore T100 workstation (GE Healthcare, NJ, USA). A recombinant form of the CD81-LEL protein with a GST-tag (Shoshana Levy Lab-Stanford) was used to determine the binding affinities of the ligands in the above list. 10 uM CD81-LEL-His diluted into 10 mM sodium acetate buffer pH 4.5 was immobilized for […] at a flow speed of 5 ul/min onto a CM5 sensor chip using amine coupling (EDC-NHS). Approximately 20,000 RU of protein were immobilized on the chip. The ligands were prepared as 200 uM solutions in PBS-1% DMSO (the running buffer) and they were introduced to the protein using a pre-programmed 3 min association and 1 min dissociation interval. Ligands that bind have a positive RU (response units) number and the strength of binding to the CD81 protein is related to the magnitude of the RU number; the larger the number the more binding.
With `CC1CCCC(CC(=O)O)(CC(=O)O)C1` (stereo not shown) [Ligand 3001] the “Binding (RU)” value was 4.6 RU.
In the case of `Cc1ccc(NC(=S)NC(=O)c2ccccc2)cc1NC(=S)NC(=O)c1ccccc1` [Ligand 5856], the “Binding (RU)” value is reported as 2.7 RU.
With `CCC(C)(C)c1ccc(Oc2cccc(C(=O)O)c2)cc1` [Ligand 7962] the “Binding (RU)” value was 14.7 RU.
With `CC(C)(C)c1ccc(OCC(=O)O)cc1` [Ligand 8481] the “Binding (RU)” value was 1.8 RU.
With `Cn1ncc2c(Nc3ccc(Br)cc3)nc(Nc3ccc(Br)cc3)nc21` [Ligand 11667] the “Binding (RU)” value was 9.6 RU.
`CCNc1ccccc1C(=O)O` [Ligand 16162] was tested, and the “Binding (RU)” value was 5.1 RU.
`CC(C)Oc1ccc(C(=O)O)cc1` [Ligand 16646] was tested, and the “Binding (RU)” value was 4.9 RU.
With `N=C(N)Nc1ccc(NC(=N)N)cc1` [Ligand 20586] the “Binding (RU)” value was 17.4 RU.
For `O=C(O)c1ccc(N2CCCCC2)cc1O` [Ligand 23895], the “Binding (RU)” value was 10 RU.
`Cc1ccc(-c2cc(C(=O)O)c3ccccc3n2)c(C)c1` [Ligand 25678] was tested, and the “Binding (RU)” value was 11.1 RU.
In the case of `O=C(O)c1[nH]c(=O)[nH]c(=O)c1F` [Ligand 31712], the “Binding (RU)” value is reported as 4.1 RU.
For `O=C(O)/C(=C/c1ccccc1)c1ccccc1` [Ligand 40614], the “Binding (RU)” value was 50.8 RU.
For `C=CCc1ccccc1OCC(=O)O` [Ligand 60239], the “Binding (RU)” value was 5.8 RU.
With `CC(OC(=O)Nc1cccc(Cl)c1)C(=O)O` (stereo not shown) [Ligand 73170] the “Binding (RU)” value was 4.3 RU.
With `O=C(O)Cn1ccc2ccccc21` [Ligand 75866] the “Binding (RU)” value was 18.9 RU.
With `COc1cccc(C2Nc3cccc4cccc(c34)N2)c1` [Ligand 76823] the “Binding (RU)” value was 5.4 RU.
With `c1cncc(C2CCCCN2)c1` (stereo not shown) [Ligand 87504] the “Binding (RU)” value was 57.9 RU.
In the case of `O=c1[nH]c2ccccc2n1C1=CCNCC1` [Ligand 88883], the “Binding (RU)” value is reported as 5.4 RU.
For `O=C(O)CCc1cccnc1` [Ligand 89720], the “Binding (RU)” value was 9.2 RU.
`Cc1cc(C)c(N)c(C(=O)O)c1` [Ligand 90444] was tested, and the “Binding (RU)” value was 13.1 RU.
In the case of `O=C(O)C(Cc1ccccc1-c1ccccc1)C(=O)O` [Ligand 94914], the “Binding (RU)” value is reported as 7.2 RU.
In the case of `CCCCNCC1CCCO1` (stereo not shown) [Ligand 97538], the “Binding (RU)” value is reported as 4.2 RU.
With `O=C(O)c1cc(O)ccc1/N=N/c1ccccc1` [Ligand 106863] the “Binding (RU)” value was 11.6 RU.
With `NC(=O)NC(=O)c1nccnc1C(=O)O` [Ligand 117922] the “Binding (RU)” value was 10.2 RU.
In the case of `O=C(O)c1ccc(OCCOc2ccccc2)cc1` [Ligand 120631], the “Binding (RU)” value is reported as 8.3 RU.
`NS(=O)(=O)c1ccc(/N=N/c2c(O)c(C(=O)O)cc3ccccc23)cc1` [Ligand 134137] was tested, and the “Binding (RU)” value was 10 RU.
`CCNc1nc(Cl)nc(-c2cn(-c3ccccc3)c3ccccc23)n1` [Ligand 142446] was tested, and the “Binding (RU)” value was 2.5 RU.
With `O=C(O)/C=C\C(=O)Nc1cccc2cccnc12` [Ligand 144958] the “Binding (RU)” value was 4.1 RU.
For `CC1=CC(=O)CC(C)(C)C1(O)/C=C/C(C)=C/C(=O)O` (stereo not shown) [Ligand 148832], the “Binding (RU)” value was 2.9 RU.
`COc1cc(/N=N/c2ccccc2C(=O)O)ccc1O` [Ligand 153172] was tested, and the “Binding (RU)” value was 2.6 RU.
With `Cc1ccc(C)c(C(=O)CCC(=O)O)c1` [Ligand 215276] the “Binding (RU)” value was 7.4 RU.
In the case of `Cc1cc(N2CCN(C)CC2)n2nc(-c3ccc(Cl)cc3)nc2n1` [Ligand 252359], the “Binding (RU)” value is reported as 9.3 RU.
With `CCOc1cccc2cc(C(N)=O)c(=N)oc12` [Ligand 263636] the “Binding (RU)” value was 3.4 RU.
`O=C(O)c1ccccc1NCc1ccco1` [Ligand 331931] was tested, and the “Binding (RU)” value was 5.9 RU.
In the case of `N=C(N)NC(=S)Nc1ccc(Cl)cc1` [Ligand 403374], the “Binding (RU)” value is reported as 12.6 RU.
In the case of `CCCCCCC(C)OC(=O)c1ccccc1C(=O)O` (stereo not shown) [Ligand 524615], the “Binding (RU)” value is reported as 4.1 RU.
`O=C(Nc1ccc(Br)c2ccccc12)c1ccc2ccccc2c1O` [Ligand 601359] was tested, and the “Binding (RU)” value was 4.1 RU.
